Laboratory results: patent US8455475B2 (Gruenenthal GmbH, priority 2009, dated 2013)

These compounds were tested against T1, rat B1R (bradykinin receptor 1) (Rattus norvegicus, UniProt P97583) (assay: FLIPR Ca2+ assay (Fluo-4) on CHO K1 cells stably transfected with the B1R gene of the rat (rB1R cells): % inhibition at 10 μM / IC50, agonist Des-Arg9-bradykinin). Conditions: CHO-K1, rat B1R.
T1 construct: expressed in transfected cells; host or cells: CHO K1 cells
T1 sequence (P97583 1-337): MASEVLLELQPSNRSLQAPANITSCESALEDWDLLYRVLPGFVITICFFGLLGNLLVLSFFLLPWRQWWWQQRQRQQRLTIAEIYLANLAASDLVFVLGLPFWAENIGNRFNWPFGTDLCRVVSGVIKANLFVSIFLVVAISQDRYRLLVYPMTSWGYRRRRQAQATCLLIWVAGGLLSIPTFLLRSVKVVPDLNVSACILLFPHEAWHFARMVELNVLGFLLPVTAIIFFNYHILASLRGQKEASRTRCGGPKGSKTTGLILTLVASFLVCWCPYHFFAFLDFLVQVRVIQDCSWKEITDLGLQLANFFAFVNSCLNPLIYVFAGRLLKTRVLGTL
Type: cell-based
Summary of the method: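 Stable CHO K1 lines, Fluo-4 dye, probenecid-containing buffer. Cpd 10 μM or dose range, 10–20 min, then EC80 agonist (h: Lys-Des-Arg9-BK; r: Des-Arg9-BK). Readout peak FC; % inhibition vs max; IC50 from n=2–3, N≥2.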

inhibition at 10 µM [%]	SMILES
51	N#Cc1ccc(CN2CCC3(CC2)CCN(C(=O)c2ccc4c(c2)C(NC(=O)c2cc(C(F)(F)F)ccc2Cl)CC4)C3)cc1 (stereo not shown) [IND_CC-658, 2-Chloro-N-[6-[8-[(4-cyano-phenyl)-methyl]-2,8-diazaspiro[4.5]decane-2-carbonyl]-2,3-dihydro-1H-inden-1-yl]-5-(trifluoromethyl)-benzamide]
81	N#Cc1cccc(CN2CCC3(CC2)CCN(C(=O)c2ccc4c(c2)C(NC(=O)c2cc(C(F)(F)F)ccc2Cl)CC4)C3)c1 (stereo not shown) [IND_CC-659, 2-Chloro-N-[6-[8-[(3-cyano-phenyl)-methyl]-2,8-diazaspiro[4.5]decane-2-carbonyl]-2,3-dihydro-1H-inden-1-yl]-5-(trifluoromethyl)-benzamide]
50	N#Cc1ccccc1CN1CCC2(CC1)CCN(C(=O)c1ccc3c(c1)C(NC(=O)c1cc(C(F)(F)F)ccc1Cl)CC3)C2 (stereo not shown) [IND_CC-660, 2-Chloro-N-[6-[8-[(2-cyano-phenyl)-methyl]-2,8-diazaspiro[4.5]decane-2-carbonyl]-2,3-dihydro-1H-inden-1-yl]-5-(trifluoromethyl)-benzamide]
95	Cc1nc[nH]c1CN1CCC2(CC1)CCN(C(=O)c1ccc3c(c1)C(NC(=O)c1cc(C(F)(F)F)ccc1Cl)CC3)CC2 (stereo not shown) [IND_CC-661, 2-Chloro-N-[6-[9-[(5-methyl-3H-imidazol-4-yl)-methyl]-3,9-diazaspiro[5.5]-undecane-3-carbonyl]-2,3-dihydro-1H-inden-1-yl]-5-(trifluoromethyl)benzamide]
76	Cc1nc(CN2CCC3(CC2)CCN(C(=O)c2ccc4c(c2)C(NC(=O)c2cc(C(F)(F)F)ccc2Cl)CC4)CC3)c[nH]1 (stereo not shown) [IND_CC-662, 2-Chloro-N-[6-[9-[(2-methyl-1H-imidazol-4-yl)-methyl]-3,9-diazaspiro[5.5]-undecane-3-carbonyl]-2,3-dihydro-1H-inden-1-yl]-5-(trifluoromethyl)benzamide]
85	O=C(NC1CCc2ccc(C(=O)N3CCC4(CCN(Cc5csnn5)CC4)CC3)cc21)c1cc(C(F)(F)F)ccc1Cl (stereo not shown) [IND_CC-663, 2-Chloro-N-[6-[9-([1,2,3]thiadiazol-4-yl-methyl)-3,9-diazaspiro[5.5]undecane-3-carbonyl]-2,3-dihydro-1H-inden-1-yl]-5-(trifluoromethyl)-benzamide]
54	Cc1c(CN2CCC3(CC2)CCN(C(=O)c2ccc4c(c2)C(NC(=O)c2cc(C(F)(F)F)ccc2Cl)CC4)CC3)cnn1C (stereo not shown) [IND_CC-664, 2-Chloro-N-[6-[9-[(1,5-dimethyl-1H-pyrazol-4-yl)-methyl]-3,9-diazaspiro[5.5]-undecane-3-carbonyl]-2,3-dihydro-1H-inden-1-yl]-5-(trifluoromethyl)benzamide]
67	Cc1noc(C)c1CN1CCC2(CC1)CCN(C(=O)c1ccc3c(c1)C(NC(=O)c1cc(C(F)(F)F)ccc1Cl)CC3)CC2 (stereo not shown) [IND_CC-665, 2-Chloro-N-[6-[9-[(3,5-dimethyl-isoxazol-4-yl)-methyl]-3,9-diazaspiro[5.5]-undecane-3-carbonyl]-2,3-dihydro-1H-inden-1-yl]-5-(trifluoromethyl)benzamide]
78	N#Cc1ccc(CN2CCC3(CC2)CCN(C(=O)c2ccc4c(c2)C(NC(=O)c2cc(C(F)(F)F)ccc2Cl)CC4)CC3)cc1 (stereo not shown) [IND_CC-666, 2-Chloro-N-[6-[9-[(4-cyano-phenyl)-methyl]-3,9-diazaspiro[5.5]undecane-3-carbonyl]-2,3-dihydro-1H-inden-1-yl]-5-(trifluoromethyl)-benzamide]
85	N#Cc1cccc(CN2CCC3(CC2)CCN(C(=O)c2ccc4c(c2)C(NC(=O)c2cc(C(F)(F)F)ccc2Cl)CC4)CC3)c1 (stereo not shown) [IND_CC-667, 2-Chloro-N-[6-[9-[(3-cyano-phenyl)-methyl]-3,9-diazaspiro[5.5]undecane-3-carbonyl]-2,3-dihydro-1H-inden-1-yl]-5-(trifluoromethyl)-benzamide]
57	N#Cc1ccccc1CN1CCC2(CC1)CCN(C(=O)c1ccc3c(c1)C(NC(=O)c1cc(C(F)(F)F)ccc1Cl)CC3)CC2 (stereo not shown) [IND_CC-668, 2-Chloro-N-[6-[9-[(2-cyano-phenyl)-methyl]-3,9-diazaspiro[5.5]undecane-3-carbonyl]-2,3-dihydro-1H-inden-1-yl]-5-(trifluoromethyl)-benzamide]
60	O=C(NC1CCc2ccc(C(=O)N3CCC4(CCN(Cc5ccc(F)cc5Cl)CC4)CC3)cc21)c1cc(C(F)(F)F)ccc1Cl (stereo not shown) [IND_CC-669, 2-Chloro-N-[6-[9-[(2-chloro-4-fluoro-phenyl)-methyl]-3,9-diazaspiro[5.5]-undecane-3-carbonyl]-2,3-dihydro-1H-inden-1-yl]-5-(trifluoromethyl)benzamide]
67	O=C(NC1CCc2ccc(C(=O)N3CCC4(CCN(Cc5c(F)cccc5Cl)CC4)CC3)cc21)c1cc(C(F)(F)F)ccc1Cl (stereo not shown) [IND_CC-670, 2-Chloro-N-[6-[9-[(2-chloro-6-fluoro-phenyl)-methyl]-3,9-diazaspiro[5.5]-undecane-3-carbonyl]-2,3-dihydro-1H-inden-1-yl]-5-(trifluoromethyl)benzamide]
80	O=C(NC1CCc2ccc(C(=O)N3CCC4(CCN(Cc5ccc6ncccc6c5)CC4)C3)cc21)c1cc(Cl)ccc1F (stereo not shown) [IND_CC-671, 5-Chloro-2-fluoro-N-[6-[8-(quinolin-6-yl-methyl)-2,8-diazaspiro[4.5]decane-2-carbonyl]-2,3-dihydro-1H-inden-1-yl]-benzamide]
88	O=C(NC1CCc2ccc(C(=O)N3CCC4(CCN(Cc5ccc6nccnc6c5)CC4)C3)cc21)c1cc(Cl)ccc1F (stereo not shown) [IND_CC-672, 5-Chloro-2-fluoro-N-[6-[8-(quinoxalin-6-yl-methyl)-2,8-diazaspiro[4.5]decane-2-carbonyl]-2,3-dihydro-1H-inden-1-yl]-benzamide]
67	Cn1nnc2cc(CN3CCC4(CC3)CCN(C(=O)c3ccc5c(c3)C(NC(=O)c3cc(Cl)ccc3F)CC5)C4)ccc21 (stereo not shown) [IND_CC-673, 5-Chloro-2-fluoro-N-[6-[8-[(1-methyl-1H-benzotriazol-5-yl)-methyl]-2,8-diazaspiro[4.5]decane-2-carbonyl]-2,3-dihydro-1H-inden-1-yl]-benzamide]
87	O=C(NC1CCc2ccc(C(=O)N3CCC4(CCN(CCCc5ccc(F)cc5)CC4)C3)cc21)c1cc(Cl)ccc1F (stereo not shown) [IND_CC-675, 5-Chloro-2-fluoro-N-[6-[8-[3-(4-fluorophenyl)-propyl]-2,8-diazaspiro[4.5]decane-2-carbonyl]-2,3-dihydro-1H-inden-1-yl]-benzamide]
74	CN(C)c1ncc(CN2CCC3(CC2)CCN(C(=O)c2ccc4c(c2)C(NC(=O)c2cc(Cl)ccc2F)CC4)CC3)cn1 (stereo not shown) [IND_CC-676, 5-Chloro-N-[6-[9-[(2-dimethylamino-pyrimidin-5-yl)-methyl]-3,9-diazaspiro-[5.5]undecane-3-carbonyl]-2,3-dihydro-1H-inden-1-yl]-2-fluoro-benzamide]
72	O=C(NC1CCc2ccc(C(=O)N3CCC4(CCN(Cc5ccc6ncccc6c5)CC4)CC3)cc21)c1cc(Cl)ccc1F (stereo not shown) [IND_CC-677, 5-Chloro-2-fluoro-N-[6-[9-(quinolin-6-yl-methyl)-3,9-diazaspiro[5.5]undecane-3-carbonyl]-2,3-dihydro-1H-inden-1-yl]-benzamide]
82	O=C(NC1CCc2ccc(C(=O)N3CCC4(CCN(Cc5ccc6nccnc6c5)CC4)CC3)cc21)c1cc(Cl)ccc1F (stereo not shown) [IND_CC-678, 5-Chloro-2-fluoro-N-[6-[9-(quinoxalin-6-yl-methyl)-3,9-diazaspiro[5.5]undecane-3-carbonyl]-2,3-dihydro-1H-inden-1-yl]-benzamide]
82	Cn1nnc2cc(CN3CCC4(CC3)CCN(C(=O)c3ccc5c(c3)C(NC(=O)c3cc(Cl)ccc3F)CC5)CC4)ccc21 (stereo not shown) [IND_CC-679, 5-Chloro-2-fluoro-N-[6-[9-[(1-methyl-1H-benzotriazol-5-yl)-methyl]-3,9-diazaspiro[5.5]undecane-3-carbonyl]-2,3-dihydro-1H-inden-1-yl]-benzamide]
54	CC(C)CN1CCC2(CC1)CCN(C(=O)c1ccc3c(c1)C(NC(=O)c1cc(Cl)ccc1F)CC3)CC2 (stereo not shown) [IND_CC-680, 5-Chloro-2-fluoro-N-[6-[9-(2-methyl-propyl)-3,9-diazaspiro[5.5]undecane-3-carbonyl]-2,3-dihydro-1H-inden-1-yl]-benzamide]
53	O=C(NC1CCc2ccc(C(=O)N3CCC4(CCN(CCc5ccccc5)CC4)CC3)cc21)c1cc(Cl)ccc1F (stereo not shown) [IND_CC-681, 5-Chloro-2-fluoro-N-[6-(9-phenethyl-3,9-diazaspiro[5.5]undecane-3-carbonyl)-2,3-dihydro-1H-inden-1-yl]-benzamide]
51	Cc1nn(C)c(C)c1CN1CCC2(CC1)CCN(C(=O)c1ccc3c(c1)C(NC(=O)c1cc(C(F)(F)F)ccc1Cl)CC3)C2 (stereo not shown) [IND_CC-682, 2-Chloro-5-(trifluoromethyl)-N-[6-[8-[(1,3,5-trimethyl-1H-pyrazol-4-yl)-methyl]-2,8-diazaspiro[4.5]decane-2-carbonyl]-2,3-dihydro-1H-inden-1-yl]-benzamide]
62	CN(C)c1ncc(CN2CCC3(CC2)CCN(C(=O)c2ccc4c(c2)C(NC(=O)c2cc(C(F)(F)F)ccc2Cl)CC4)C3)cn1 (stereo not shown) [IND_CC-683, 2-Chloro-N-[6-[8-[(2-dimethylamino-pyrimidin-5-yl)-methyl]-2,8-diazaspiro[4.5]-decane-2-carbonyl]-2,3-dihydro-1H-inden-1-yl]-5-(trifluoromethyl)-benzamide]
